We go through one compound from US20160038519A1, “ADMINISTRATION OF KARENITECIN FOR THE TREATMENT OF ADVANCED OVARIAN CANCER, INCLUDING CHEMOTHERAPY-RESISTANT AND/OR THE MUCINOUS ADENOCARCINOMA SUB-TYPES” (BioNumerik Pharmaceuticals, Inc., priority 2014, published 2016).

Series [1] in a line: Limit of solubility in cell culture medium. It is filed as physicochemical. The conditions noted are these: aqueous buffer. The method, then:
The 1050 values exceeded the solubility in medium for each compound—the limit of solubility in cell culture medium for the compounds were as follows: 2 micromolar for BNP1350 and SN38, and 20 micromolar for Topotecan. Cells were treated for periods of 2.5 hours or 6 hours and, in each case, the […] values were not reached. Longer treatments were not performed.

Series [2] relates to mucinous cell lines (JHOM2B, OMC3, and COV644). Nature of the series: SRB assay, joint statements for the mucinous cell lines incl. effect of BNP7787 on BNP1350-induced cytotoxicity. It counts as cell-based, human. The conditions noted are these: each of JHOM2B, OMC3, COV644. The method, then: In vitro studies were conducted in human mucinous ovarian cancer cell lines including JHOM2B, OMC3, and COV644. In one series of experiments, the dose response curves for BNP1350 (also known as Karenitecin), SN-38 (Irinotecan), and Topotecan were obtained and IC50 values were determined. In a second series of experiments, the effect of BNP7787 (2,2′-dithio-bis-ethane sulfonate; Tavocept) on BNP1350-induced cytotoxicity at selected BNP1350 concentrations was examined.
The JHOM2B and OMC3 cell lines were purchased from Riken Cell Bank (Japan). The COV644 cell line was purchased from SigmaAldrich. Cells were maintained as monolayered cultures in T-75 flasks and then seeded to microtiter plate wells for experiments. Population doubling-times for these three cell lines were long (i.e., exceeding 40 hours, and for some of the cell lines approaching 96 hours); therefore, the Applicants conducted initial pilot experiments and determined optimal seeding density to obtain A570 values in untreated controls that would fall within the linear range of the SRB assay after seven (7) total days of cell growth. […]
The cells were manipulated in a Microzone laminar flow hood traditionally used for maintaining aseptic environments around automated instrumentation such as microplate robots, and the like. […] Cells were counted using a ViCell counter (Beckman-Coulter). An automated plate washer/stacker (ELx405/BioStak from BioTek Instruments) and a microplate reader (SpectraMax Plus from Molecular Devices) were used for conducting the SRB assay and determining A570 values for wells in the plates and the percentage of control values. Prior to SRB assays, cell viability was monitored by evaluation of microtiter plate wells. […]
The sulforhodamine B (SRB) cytotoxicity assay was used to assess cell survival. […] Plates were agitated (gently) for 5 minutes and the absorbance values of the SRB dye-protein adduct at 570 nanometers (A570) were determined using an automated microtiter plate reader (SpectraMax Plus, Molecular Devices). […]
In general terms: In SRB staining, fixed cells bind dye roughly in proportion to their protein.

A short description of series [3]: Phase I clinical studies of intravenous Karenitecin. It counts as in vivo, human. The protocol:
Results from three Phase I studies indicate that Karenitecin can be safely administered to subjects at the dose level of 1.0 mg/m^2/day i.v. over a one hour period of time for 5 consecutive days in a 3-week treatment cycle. […] Any gastrointestinal toxicity is generally ≦grade 2 and is not dose-limiting.
Intravenous administration of Karenitecin has been evaluated in three Phase I clinical studies in subjects with the following cancer types: (i) advanced solid tumors (adult subjects) (see, e.g., Schilsky, R. L., Hausheer, F. H., et al., Phase I trial of karenitecin administered intravenously daily for five consecutive days in subjects with advanced solid tumors using accelerated dose titration [abstract]. ASCO Abstract 758 (2000)); (ii) refractory or recurrent solid tumors (pediatric subjects); and (iii) recurrent malignant glioma (adult subjects). Intravenous administration of Karenitecin has also been evaluated in four Phase 2 clinical studies in adult subjects with the following cancer types: (i) primary malignant glioma; (ii) third-line treatment of persistent or recurrent epithelial ovarian or primary peritoneal carcinoma; (iii) malignant melanoma (see, e.g., Hausheer, F. H., et al., Phase II trial of Karenitecin (BNP1350) in malignant melanoma: clinical and translational study [abstract]. ASCO Abstract 7554 (2004); and (iv) relapsed or refractory non-small cell lung cancer (see, e.g., Miller, A. A., et al., MR for the Cancer and Leukemia Group B. Phase II trial of karenitecin in subjects with relapsed or refractory non-small cell lung cancer (CALGB 30004) Lung Cancer 48:399-407 (2005)).

In series [4] the test system is beagle dogs. Nature of the series: Preclinical toxicology, oral single daily doses for five consecutive days, beagle dogs. To be noted: oral vs i.v.
Assay in series [5]: as above
The conditions noted are these: beagle, dog, in vivo, po.

Series [6] is described as follows: Toxicology study of single daily doses given orally and intravenously for five consecutive days. To be noted: oral and i.v. single daily doses. It counts as in vivo.

Structures are written as SMILES. Converted amounts (≈) assume the structure as drawn. “Also recorded” adds a separate entry of the source. Some results are limits rather than exact numbers.

What is called solubility is the dissolved amount per volume that the medium holds. As for `CC[C@@]1(O)C(=O)OCc2c1cc1n(c2=O)Cc2c-1nc1ccccc1c2CC[Si](C)(C)C` [Karenitecin, (4S)-4-ethyl-4-hydroxy-11-[2-(trimethylsilyl)ethyl]-1H-pyrano[3′:4′:6,7]indolizino[1,2-b]quinoline-3,14(4H,12H)-dione], the solubility in series [1] stood at 2 µM (≈ 0.897 µg/mL). Besides, in series [2], the “Potency compared with SN38 and topotecan (dose response curves)” value was “much more potent”. The same compound returned a Gastrointestinal toxicity grade in series [3] (i.v. 1.0 mg/m^2/day x5, 3-week cycle, not dose-limiting) of no more than 2 grade. Further, the Dose-limiting toxicity result in series [3] (i.v., Phase I clinical studies) was “non-cumulative, reversible myelosuppression; also recorded: reversible and non-cumulative neutropenia and thrombocytopenia”. Further, the “Hypersensitivity reactions reported by subjects” value in series [3] (to date) is listed as “no hypersensitivity reactions”. Besides, the “MTD of oral relative to intravenous (i.v.) Karenitecin” value in series [4] is given as “approximately 2 times”. In addition, in series [5], the MTD at 5 days worked out at 0.075 mg/kg. The “Tolerability of oral doses” value in series [6] is on record as “good tolerability”.
